Assay results: article PMC7002685, “Inhibition of vascular calcification by inositol phosphates derivatized with ethylene glycol oligomers” (Nature Communications, 2020)
Values joined by “and” are separate entries in the source; they are usually repeats but may differ in a detail not shown here. Identical values can stand only once.

Test system: transformation of CPP1 to CPP2 in pooled human serum
Test: In vitro serum calcification propensity (T50) screening assay
Type: biochemical
Set-up: key to T50: T50 in minutes (time to 50% CPP phase transition)
Conditions: for activity/unit mass: mean c350 x mw (Na salt); for concentration upon which a T50 of 350 min is reached (c350), mean: mean of n experiments; for concentration upon which a T50 of 350 min is reached (c350), single experiment: one value per experiment (lab journal reference E05-E40); for Concentration at T50 = 350 min mean ± s.d. (n) (c350): pooled human serum, 10 mM calcium, 6 mM phosphate, 37 °C
Procedure: The compounds were ranked for calcification inhibition activity using a nanoparticle-based test, developed for risk stratification, which measures the propensity for calcification in patient serum. […] The time, after which 50% of CPP phase transition occurred (T50), was assessed by time-resolved spectrophotometry at 550 nm (Supplementary Fig. 1a).
The screening assay was performed as described previously. In brief, pooled human serum (H4522, Sigma-Aldrich) stored at −20 °C was thawed at 37 °C, centrifuged (10,000 × g, and 4 °C, 30 min) (5427R, Eppendorf, Switzerland), and sterile filtered (0.22 μm filter, Millipore, Merck KGaA) to remove potential cryoprecipitates (cleared human serum). The calcium solution was 40 mM CaCl2 (102382, Merck KGaA) in HBS, pH 7.4 (RT) (100 mM HEPES (H3375, Sigma-Aldrich) and 140 mM NaCl (1734712, Fisher Scientific, Hampton, NH, USA)). […] All salt solutions and buffers were double sterile filtered (0.22 µm) and pre-warmed to 37 °C prior to use. […] The plate was sealed with an adhesive film and the absorption at 550 nm was measured every 3 min with 1 min in-between shaking for a total of 300 cycles at 37 °C using the infinite M200 microplate reader (Tecan, Männedorf, Switzerland). An A550 vs. time graph was generated and T50 (min) (time at half-maximum transition from CPP1 to CPP2) values were derived by sigmoidal curve fit using Prism 8 (nonlinear regression in the log(agonist) vs. response–variable slope (four parameter mode) using the robust fit fitting method, GraphPad Software, San Diego, CA, USA). Activities between compounds were compared by generating a T50 (min) vs. concentration (µM) graph, calculating nonlinear regression and deriving the concentration required to delay T50 to 350 min (c350) using a standard equation for the dose–response curve, Eq. (1), whereby x = [compound], y = time (min), bottom = baseline response, top = maximum response, T50 = [drug] that leads to half-maximum response, and the hill slope is a factor that describes the steepness of the curve.1 y= bottom+top - bottom/1+T50/x^hillslope.

[1] = concentration 1 μM, one value per experiment
[2] = concentration 3 μM, one value per experiment
[3] = concentration 5 μM, one value per experiment
[4] = concentration 10 μM, one value per experiment
[5] = concentration 15 μM, one value per experiment
[6] = concentration 30 μM, one value per experiment
[7] = concentration 50 μM, one value per experiment
[8] = concentration 100 μM, one value per experiment

Row | Compound | T50 [1] | T50 [2] | T50 [3] | T50 [4] | activity/unit mass [mg/L] | concentration upon which a T50 of 350 min is reached (c350), mean [µM] | concentration upon which a T50 of 350 min is reached (c350), single experiment | Concentration at T50 = 350 min mean ± s.d. (n) (c350) | T50 [5] | T50 [6] | T50 [7] | T50 (1 µM, individual experiments, Fig. 2a) | T50 (3 µM, individual experiments, Fig. 2a) | T50 (10 µM, individual experiments, Fig. 2a) | T50 (30 µM, individual experiments, Fig. 2a) | T50 (50 µM, individual experiments, Fig. 2a) | T50 (100 µM, individual experiments, Fig. 2a) | T50 [8]
1 | COCCOCCOCCOCCOCCOCCOCCO[C@H]1[C@H](OP(=O)(O)O)[C@H](OCCOCCOCCOCCOCCOCCOCCOC)[C@H](OP(=O)(O)O)[C@@H](OCCOCCOCCOCCOCCOCCOCCOC)[C@@H]1OP(=O)(O)O [(OEG7)3-IP3, 2,4,6-Tri-O-(methoxy-heptaethyleneglycol)-myo-inositol-1,3,5-tris(phosphate)] | 258.7 and 237.667 and 205.767 | 289.967 and 270.1 and 251.367 | 303.667 and 291.2 and 260.633 | 364.467 and 352.533 and 355.7 | 14.33 | 9.4 | 8.7 µM and 9.8 µM | 9.4 ± 0.6 (3) µM and 14.3 ± 1.0 (3) mg/L |  |  |  |  |  |  |  |  |  | 
2 | CC(O)(P(=O)(O)O)P(=O)(O)O [Etidronate, etidronate] | 222.567 and 215.333 and 215.167 | 248.167 and 245.7 and 237.9 | 290 and 263.6 and 286.233 | 321.233 and 361.6 | 2.61 | 10.5 | 9.9 µM and 11.5 µM and 11.3 µM and 9.1 µM | 10.5 ± 1.1 (4) µM and 2.6 ± 0.3 (4) mg/L | 433.033 and 458.567 | 729.533 |  |  |  |  |  |  |  | 
3 | O=P(O)(O)O[C@@H]1[C@@H](O)[C@@H](OP(=O)(O)O)[C@@H](O)[C@H](O)[C@H]1O [IP2, myo-Inositol-2,4-diphosphate] | 228.333 and 230.233 and 205.967 | 236.4 and 226.467 and 221.933 |  | 274.433 and 257.367 and 241.267 |  | 35.0 | 27.3 µM and 35.1 µM and 42.7 µM | 35.0 ± 7.7 (3) µM and 15.0 ± 3.3 (3) mg/L |  | 358.8 and 323.1 and 304.6 | 407.867 and 425.367 and 375.7 |  |  |  |  |  |  | 
4 | O=P(O)(O)O[C@@H]1[C@H](O)[C@H](O)[C@@H](OP(=O)(O)O)[C@H](OP(=O)(O)O)[C@H]1O [IP3, myo-Inositol-1,4,5-triphosphate] | 226 and 227.733 and 222.3 | 236 and 220.433 and 234.133 |  | 306.433 and 280.567 and 269.467 |  | 18.6 | 15.5 µM and 18.6 µM and 21.6 µM | 18.6 ± 3.1 (3) µM and 10.2 ± 1.7 (3) mg/L |  | 515.9 and 500.567 and 450.3 | 814.5 and 889.4 and 828.767 |  |  |  |  |  |  | 
5 | O=P(O)(O)O[C@@H]1[C@@H](O)[C@H](OP(=O)(O)O)[C@@H](OP(=O)(O)O)[C@H](O)[C@@H]1OP(=O)(O)O [IP4, myo-Inositol-2,3,5,6-tetrakisphosphate] | 211 and 218.833 and 216.333 | 225 and 236 and 231.367 |  | 262.033 and 281.067 and 280.633 |  | 19.5 | 20.1 µM and 19.8 µM and 18.8 µM | 19.5 ± 0.7 (3) µM and 13.2 ± 0.5 (3) mg/L |  | 466.533 and 430.4 and 481.633 | 774.233 and 614.5 and 810.35 |  |  |  |  |  |  | 
6 | O=P(O)(O)O[C@@H]1[C@H](OP(=O)(O)O)[C@H](OP(=O)(O)O)[C@@H](O)[C@H](OP(=O)(O)O)[C@H]1OP(=O)(O)O [IP5, myo-Inositol-1,2,3,5,6-pentakisphosphate] | 220.367 and 229.167 and 217.95 | 240.433 and 226.567 |  | 286.067 and 304.933 and 322.1 |  | 13.2 | 14.6 µM and 12.1 µM and 12.9 µM | 13.2 ± 1.3 (3) µM and 10.5 ± 1.0 (3) mg/L | 373.933 | 702.867 and 723.533 and 709.1 |  |  |  |  |  |  |  | 
7 | OP(O)(=S)O[C@H]1[C@H](OP(O)(O)=S)[C@@H](OP(O)(O)=S)[C@H](OP(O)(O)=S)[C@@H](OP(O)(O)=S)[C@H]1OP(O)(O)=S [IT6, myo-Inositol hexathiophosphate] | 209.1 and 228.433 and 226.433 | 226.567 and 251.033 and 247.133 |  | 291.533 and 299.233 and 300.133 | 12.79 | 14.4 | 14.7 µM and 14.2 µM and 14.3 µM | 14.4 ± 0.3 (3) µM |  | 577.433 and 598.2 and 571.6 |  |  |  |  |  |  |  | 
8 | O=C([O-])CC(O)(CC(=O)[O-])C(=O)[O-].O=C([O-])CC(O)(CC(=O)[O-])C(=O)[O-].[Mg+2].[Mg+2].[Mg+2] [Mg citrat] |  |  |  |  | 21.44 | > 100 |  |  |  |  |  |  |  |  |  |  |  | 
9 | O=P(O)(O)OP(=O)(O)O [PPi, sodium pyrophosphate] | 217.433 | 221.633 and 215.733 and 209.467 |  | 255.8 and 265.133 and 242.367 |  | 27.4 | 26.6 µM and 25 µM and 30.5 µM | 27.4 ± 2.8 (3) µM and 7.3 ± 0.8 (3) mg/L | 287.067 and 306.267 and 274.667 | 364.3 and 363.867 and 345.167 | 483 and 451.167 |  |  |  |  |  |  | 
10 | O[C@H]1[C@H](O)[C@@H](O)[C@H](O)[C@@H](O)[C@H]1O [myo-Inositol, myo-inositol] | 207.8 and 255.6 and 248.233 and 290.55 | 211.367 and 251.867 and 315.75 |  | 222.4 and 274.533 and 249.233 and 297.6 | 18.02 | > 100 |  | >100 (4) µM and >18.0 (4) mg/L |  | 215.55 and 286.233 and 247.167 and 309.65 | 213.1 and 307.8 | 207.8 min and 255.6 min and 248.233 min and 290.55 min | 211.367 min and 251.867 min and 315.75 min | 222.4 min and 274.533 min and 249.233 min and 297.6 min | 215.55 min and 286.233 min and 247.167 min and 309.65 min | 213.1 min and 307.8 min | 291.467 min and 250.833 min | 291.467 and 250.833
11 | magnesium citrate | 196.233 and 242.1 and 288.4 | 190.533 and 253.267 and 289.2 |  | 197.533 and 253.867 and 304.8 |  |  |  | >100 (3) µM and >21.4 (3) mg/L |  | 198.933 and 273.433 and 307.3 |  |  |  |  |  |  |  | 228.767 and 304.4 and 351.8
